# Laboratory results published in publication PMC6136390, “Coptisine-induced inhibition of Helicobacter pylori: elucidation of specific mechanisms by probing urease active site and its maturation process” (Journal of Enzyme Inhibition and Medicinal Chemistry, 2018).
# Read-outs that look alike come from different tables or passages of the source.
# What was measured:
# H. pylori strains = test: Minimal inhibitory concentration assay (agar dilution); type: cell-based, Helicobacter pylori
# From the text: Fourteen H. pylori strains were used in this study. NCTC 11637 and NCTC 26695 strains were purchased from American Type Culture Collection. Sydney Strain-1 (SS1) was kindly provided by Prof. Richard Ferrero of Monash University, Australia. Clinical isolate ICDC 111001 was provided by Prof. Zhang Jian-zhong of the Chinese Center for Disease Control and Prevention, China. Ten clinical isolates (Hp1868, Hp1869, Hp1870, Hp1871, Hp1872, Hp1873, Hp1874, Hp1875, Hp1876, and Hp1877) were obtained from Renji Hospital, Shanghai Jiaotong University.
# All strains were cultured in Columbia agar base containing 7% sheep blood at 37 °C in a micro-aerophilic environment (5% O2, 10% CO2, and 85% N2). After 3 days, H. pylori was scraped and suspended in phosphate buffered saline (PBS). Turbidimetry was employed to adjust the concentrations of different H. pylori strains (turbidity equivalent to 1.0 McFarland standard). Crude HPU was obtained according to the method described by Matsubara et al.[42]
# In this study, different concentrations (12.5, 25, 50, and 100 μg/mL) of berberine, palmatine, epiberberine, jatrorrhizine, and coptisine were used to evaluate antimicrobial activity against the standard H. pylori strain NCTC 11637. The agar dilution method was then used to analyse the antibacterial effects of coptisine against two H. pylori standard strains (SS1 and NCTC 26695) and eleven clinical isolates (ICDC 111001, HP 1868, HP 1869, HP 1870, HP 1871, HP 1872, HP 1873, HP 1874, HP 1875, HP 1876, and HP 1877). In this assay, 100 μL of H. pylori suspension (McFarland = 1.0) was added to the test compound-containing or DMSO-containing (control) Columbia blood agar plate. CLR and MET were used as positive controls in this experiment. Minimum inhibitory concentration (MIC) was defined as the lowest concentration at which no strain growth was observed by visual examination after 3 days. This experiment was repeated twice.
# UreG dimer = target: T1, UreG dimer (Helicobacter pylori, UniProt Q09066); test: UreG dimer formation inhibition assay (size exclusion chromatography); type: biochemical; conditions: 500 μM coptisine, 300 μM GTP, 5 μM UreG monomer, 2.5 μM NiSO4, 60 min
# T1 construct: HisSUMO (N, cleaved yes); made in house; host or cells: Escherichia coli
# Protocol: Size exclusion chromatography technology was used to analyse the effects of coptisine on UreG dimer formation. Experiment was carried out in the buffer containing 5 μM UreG monomer and 2.5 μM NiSO4, and divided into the following three groups: 300 μM GTP (positive control), buffer A (negative control), and 300 μM GTP +500 μM coptisine. After reaction for 60 min, samples were then injected into a Superdex 75 analytical gel filtration column pre-equilibrated with buffer A.
# UreG dimers = target: T2, UreG dimers (Helicobacter pylori, UniProt Q09066); test: Nickel uptake assay (dialysis, atomic absorption spectroscopy); type: biochemical; conditions: 25, 50 and 100 μM coptisine, 2.5 μM UreG dimer, versus control, all p < 0.01
# T2 construct: HisSUMO (N, cleaved yes); made in house; host or cells: Escherichia coli
# Protocol: UreG dimers were obtained using GTPγS as described previously. Briefly, the UreG dimer was purified by incubating apo-UreG at 3 mg/mL on ice with 1 mM GTP, 2 mM MgSO4, and 0.5 mM NiSO4 for 15 min. Nickel-charged UreG dimers were then separated from excess GTP and nickel using a Sephadex G25 desalting column. UreG dimers (2.5 μM) were injected into dialysis bag (6–8 kDa) and mixed with different concentrations of coptisine (25, 50, or 100 μM) or DMSO (control). The dialysis bag was sealed and placed in beakers containing UreG dimer buffer at 37 °C in a water bath. After 30 min, dialysis bags were placed in fresh buffer and the sample was incubated for 2 h at 4 °C with continuous shaking to initiate dialysis. The dialysis process was repeated three times. Samples were then removed and nickel concentrations were measured using atomic absorption spectroscopy (AA-7000, SHIMADZU). Nickel concentration was determined by comparing measurements against a standard curve of known nickel concentrations.
# H. pylori urease (HPU) = target: T3, H. pylori urease (HPU) (Helicobacter pylori, UniProt P69996); test: Progress curve analysis; type: biochemical; conditions: 0.63, 1.25 and 2.50 mM Cop, non-pre-incubated and pre-incubated systems
# T3 construct: Crude HPU was obtained according to the method described by Matsubara et al; endogenous in cells; host or cells: cultured Helicobacter pylori (strain not specified)
# Protocol: (§1) Reaction progress curves for urea hydrolysis in the non-pre-incubated and pre-incubated systems were generated by plotting the concentration of ammonia generated as a function of the incubation time P(t) in the absence or presence of coptisine. Coptisine and urease were mixed immediately before the reaction in the non-pre-incubated system and were mixed and incubated for 20 min before urea was added to initiate the reaction in the pre-incubated system. Urease activity relative to the standard assay was determined at different time intervals.
# jack bean urease (JBU) = target: T4, jack bean urease (JBU) (Canavalia ensiformis, UniProt P07374); test: Progress curve analysis; type: biochemical; conditions: 0.63, 1.25 and 2.50 mM Cop, non-pre-incubated and pre-incubated systems
# T4 construct: purchased Sigma Aldrich (Steineheim, Germany) type III (catalogue number not given)
# Protocol: as §1
# T2 sequence (Q09066 whole entry): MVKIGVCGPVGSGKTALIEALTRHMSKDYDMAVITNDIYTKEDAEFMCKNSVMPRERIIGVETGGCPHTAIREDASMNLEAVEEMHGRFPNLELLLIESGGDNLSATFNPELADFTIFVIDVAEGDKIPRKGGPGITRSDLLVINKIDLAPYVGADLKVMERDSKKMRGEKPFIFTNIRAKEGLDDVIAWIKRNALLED
# T1 sequence (Q09066 whole entry): as above
# T3 sequence (P69996 whole entry): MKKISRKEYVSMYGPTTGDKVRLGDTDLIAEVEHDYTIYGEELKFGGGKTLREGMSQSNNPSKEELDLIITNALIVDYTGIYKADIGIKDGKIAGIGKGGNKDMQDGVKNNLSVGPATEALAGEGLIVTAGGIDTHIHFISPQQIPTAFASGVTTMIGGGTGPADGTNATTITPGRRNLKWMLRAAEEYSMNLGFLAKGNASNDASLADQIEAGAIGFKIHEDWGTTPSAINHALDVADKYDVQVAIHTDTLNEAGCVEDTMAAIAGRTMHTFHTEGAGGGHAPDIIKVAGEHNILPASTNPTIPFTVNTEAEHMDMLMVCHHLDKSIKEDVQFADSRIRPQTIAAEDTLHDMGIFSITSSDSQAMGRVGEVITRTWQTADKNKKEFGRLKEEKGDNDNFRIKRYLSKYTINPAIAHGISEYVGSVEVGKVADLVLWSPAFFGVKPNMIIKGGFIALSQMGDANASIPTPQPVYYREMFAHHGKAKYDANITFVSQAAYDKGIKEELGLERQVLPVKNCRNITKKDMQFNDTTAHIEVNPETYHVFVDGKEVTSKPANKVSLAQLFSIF
# T3 sequence (P14916 whole entry, further chain): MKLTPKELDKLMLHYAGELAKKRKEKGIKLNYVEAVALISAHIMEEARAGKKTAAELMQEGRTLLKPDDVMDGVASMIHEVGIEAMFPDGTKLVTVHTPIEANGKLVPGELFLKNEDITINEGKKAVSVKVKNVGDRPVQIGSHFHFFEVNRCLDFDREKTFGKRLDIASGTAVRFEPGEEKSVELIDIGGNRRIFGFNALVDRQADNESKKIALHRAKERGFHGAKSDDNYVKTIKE
# T4 sequence (P07374 whole entry, looked up): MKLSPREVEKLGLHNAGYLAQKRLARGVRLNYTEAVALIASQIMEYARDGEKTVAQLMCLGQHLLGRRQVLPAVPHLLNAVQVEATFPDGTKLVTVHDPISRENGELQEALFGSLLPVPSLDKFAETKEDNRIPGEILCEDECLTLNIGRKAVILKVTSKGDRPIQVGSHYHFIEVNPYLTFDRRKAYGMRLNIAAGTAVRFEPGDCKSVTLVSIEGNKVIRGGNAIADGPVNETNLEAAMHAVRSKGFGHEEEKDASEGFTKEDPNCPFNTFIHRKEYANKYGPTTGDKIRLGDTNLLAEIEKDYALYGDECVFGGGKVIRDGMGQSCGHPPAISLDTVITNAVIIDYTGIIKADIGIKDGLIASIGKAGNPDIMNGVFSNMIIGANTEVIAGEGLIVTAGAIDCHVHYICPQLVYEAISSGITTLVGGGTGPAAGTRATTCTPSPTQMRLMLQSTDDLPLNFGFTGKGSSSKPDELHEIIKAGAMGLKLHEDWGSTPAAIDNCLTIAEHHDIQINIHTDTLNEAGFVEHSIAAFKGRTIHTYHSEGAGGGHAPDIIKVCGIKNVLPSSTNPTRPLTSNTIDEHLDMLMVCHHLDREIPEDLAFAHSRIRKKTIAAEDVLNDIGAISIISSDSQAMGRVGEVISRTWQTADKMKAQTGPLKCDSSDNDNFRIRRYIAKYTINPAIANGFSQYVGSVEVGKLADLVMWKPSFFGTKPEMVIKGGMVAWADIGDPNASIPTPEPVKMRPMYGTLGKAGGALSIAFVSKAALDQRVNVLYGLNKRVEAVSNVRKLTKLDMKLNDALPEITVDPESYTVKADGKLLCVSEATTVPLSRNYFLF
compound,measurement,setting,value
c1c2c(cc3c1OCO3)-c1cc3ccc4c(c3c[n+]1CC2)OCO4 [Coptisine],MIC,"H. pylori strains; Helicobacter pylori, NCTC11637, pH 7.2, standard strain NCTC 11637, pH 7.2",25 µg/mL
same,MIC,"H. pylori strains; Helicobacter pylori, NCTC26695, strain NCTC 26695, pH = 7.2",25 µg/mL
same,MIC,"H. pylori strains; Helicobacter pylori, clinical isolate HP 1868, pH = 7.2",50 µg/mL
same,MIC,"H. pylori strains; Helicobacter pylori, clinical isolate HP 1869 (MET resistance), pH = 7.2",50 µg/mL
same,MIC,"H. pylori strains; Helicobacter pylori, clinical isolate HP 1870 (CLR and MET resistance), pH = 7.2",25 µg/mL
same,MIC,"H. pylori strains; Helicobacter pylori, clinical isolate HP 1871 (MET resistance), pH = 7.2",25 µg/mL
same,MIC,"H. pylori strains; Helicobacter pylori, clinical isolate HP 1872, pH = 7.2",25 µg/mL
same,MIC,"H. pylori strains; Helicobacter pylori, clinical isolate HP 1873, pH = 7.2",50 µg/mL
same,MIC,"H. pylori strains; Helicobacter pylori, clinical isolate HP 1874, pH = 7.2",50 µg/mL
same,MIC,"H. pylori strains; Helicobacter pylori, clinical isolate HP 1875, pH = 7.2",50 µg/mL
same,MIC,"H. pylori strains; Helicobacter pylori, clinical isolate HP 1876 (CLR and MET resistance), pH = 7.2",50 µg/mL
same,MIC,"H. pylori strains; Helicobacter pylori, clinical isolate HP 1877, pH = 7.2",50 µg/mL
same,MIC,"H. pylori strains; Helicobacter pylori, clinical isolate ICDC 111001, pH = 7.2",25 µg/mL
same,MIC,"H. pylori strains; Helicobacter pylori, read-out: MICs against eleven clinical isolates, eleven clinical isolates from three sites in China",25 to 50 µg/mL
same,MIC,"H. pylori strains; Helicobacter pylori, strain SS1, pH = 7.2",25 µg/mL
same,MIC,"H. pylori strains; clinical isolate HP 1869 (MET resistance), pH = 7.2",50 µg/mL
same,MIC,"H. pylori strains; clinical isolate HP 1870 (CLR and MET resistance), pH = 7.2",25 µg/mL
same,MIC,"H. pylori strains; clinical isolate HP 1871 (MET resistance), pH = 7.2",25 µg/mL
same,MIC,"H. pylori strains; clinical isolate HP 1876 (CLR and MET resistance), pH = 7.2",50 µg/mL
same,MIC,"H. pylori strains; standard strain NCTC 11637, pH 7.2",25 µg/mL
same,MIC,"H. pylori strains; strain NCTC 26695, pH = 7.2",25 µg/mL
same,MIC,"H. pylori strains; strain SS1, pH = 7.2",25 µg/mL
same,UreG dimerisation,UreG dimer,obviously inhibited
same,bound nickel concentrations of UreG dimers,UreG dimers,markedly decreased
same,"binding behaviour from reaction progress curves, HPU",H. pylori urease (HPU),slow-binding inhibition
same,"binding behaviour from reaction progress curves, JBU",jack bean urease (JBU),slow-binding inhibition
